Results from patent publication US7960483B2, “Adamantane derivative, composition comprising the derivative, and optical and electronic member using the composition” (Idemitsu Kosan Co., Ltd., priority 2006, dated 2011).

What was measured:
[1] = Compatibility test with bisphenol A (BPA) epoxy resin; format: physicochemical; conditions: 2.1 g sample + 0.9 g Epikote 828, mixed at 100-130° C., stood at room temperature; time until crystals begin precipitating
Method: A sample (2.1 g) and 0.9 g of a BPA epoxy resin (Epikote 828 manufactured by Japan Epoxy Resin Co., Ltd.) were heated to 100° C. to 130° C. and mixed. When a uniform mixture was confirmed to be obtained, the mixture was cooled to room temperature and allowed to quiescently stand to observe the precipitation of crystals with naked eyes and to determine the time period required for the crystals to begin precipitating. When the crystals began precipitating within 0 to 2 days, the evaluation was rated “C”. When 3 to 6 days were required, the evaluation was rated “B”. When no crystals were precipitated even when 7 days had passed, the evaluation was rated “A”.

[2] = Solubility test in cyclohexanone; conditions: saturation solubility at room temperature, liquid chromatography, about 3 days
Method: To 2 g of a sample 1 g of cyclohexanone was added. The mixture was heated to 80° C. to dissolve the sample and cooled to room temperature. Then seed crystals were added thereto and stirred. The solubility (unit: % by mass) of the sample in the solution was measured by liquid chromatography. Such stirring and measurement by liquid chromatography procedures were repeated for about 3 days. The saturation solubility represents the solubility value at which the measured solubility no longer changed.

| Molecule | Compatibility with BPA type epoxy resin [1] | Solubility in cyclohexanone [2] [% by mass] |
| --- | --- | --- |
| 1,3-bis(glycidyloxyphenyl)adamantane [BP13-EPO, reference compound] | C (When the crystals began precipitating within 0 to 2 days, the evaluation was rated “C”) |  |
| c1cc(OCC2CO2)c(C2CCCCC2)cc1C12CC3CC(C1)CC(c1ccc(OCC4CO4)c(C4CCCCC4)c1)(C3)C2 (stereo not drawn) [BCHP13-EPO, 1,3-bis(4-glycidyloxy-3-cyclohexylphenyl)adamantane] | A (When no crystals were precipitated even when 7 days had passed, the evaluation was rated “A”) | 46 |
| Cc1cc(C23CC4CC(C2)CC(c2cc(C)c(OCC5CO5)c(C)c2)(C4)C3)cc(C)c1OCC1CO1 (stereo not drawn) [BDMP13-EPO, 1,3-bis(4-glycidyloxy-3,5-dimethylphenyl)adamantane] | A (When no crystals were precipitated even when 7 days had passed, the evaluation was rated “A”) | 35 |
| Cc1cc(C2(c3cc(C)c(OCC4CO4)c(C)c3)C3CC4CC(C3)CC2C4)cc(C)c1OCC1CO1 (stereo not drawn) [BDMP22-EPO, 2,2-bis(4-glycidyloxy-3,5-dimethylphenyl)adamantane] | B (When 3 to 6 days were required, the evaluation was rated “B”) | 32 |
| Cc1cc(C23CC4CC(C2)CC(c2ccc(OCC5CO5)c(C)c2)(C4)C3)ccc1OCC1CO1 (stereo not drawn) [BMP13-EPO, 1,3-bis(4-glycidyloxy-3-methylphenyl)adamantane] | B (When 3 to 6 days were required, the evaluation was rated “B”) | 33 |
